Experiments:
[1] = molecular target: Glutamate receptor ionotropic, NMDA 1 (Rattus norvegicus, UniProt P35439); test: Inhibition of [3H]glycine to glycine binding site, associated with the N-methyl-D-aspartate glutamate receptor 1 in crude synaptic membranes prepared from adult rat cerebral cortex.; format: cell membranes
[2] = tested on: Mus musculus; test: Effective dose to inhibit convulsions induced by NMDA in mice, when administered intravenous route.; format: functional
[3] = tested on: Mus musculus; test: Effective dose to inhibit convulsions induced by NMDA in mice, when administered peroral route.; format: functional; conditions: po
[4] = molecular target: Glutamate receptor ionotropic, NMDA 1 (Rattus norvegicus) (UniProt P35439); test: Antagonistic activity by using [3H]TCP radioligand (non competitive inhibition) at strychnine-insensitive N-methyl-D-aspartate glutamate receptor 1

| SMILES | Ki [1] | other results |
| --- | --- | --- |
| O=C(/C=C/c1c(C(=O)O)[nH]c2cc(Cl)cc(Cl)c12)Nc1ccc(F)cc1[N+](=O)[O-] | 31.6 nM | – |
| O=C(/C=C/c1c(C(=O)O)[nH]c2cc(Cl)cc(Cl)c12)Nc1ccc(Cl)c([N+](=O)[O-])c1 | 126 nM | – |
| O=C(O)CCc1c(C(=O)[O-])[nH]c2cc(Cl)cc(Cl)c12.[Na+] | 39.8 nM | ED50 [2]: > 10 mg/kg |
| Nc1ccccc1NC(=O)/C=C/c1c(C(=O)O)[nH]c2cc(Cl)cc(Cl)c12 | 3.16 nM | – |
| O=C(CCc1c(C(=O)[O-])[nH]c2cc(Cl)cc(Cl)c12)Nc1ccccc1.[Na+] | 25.1 nM | ED50 [2]: 3.7 mg/kg |
| O=C(/C=C/c1c(C(=O)O)[nH]c2cc(Cl)cc(Cl)c12)Nc1cccc([N+](=O)[O-])c1F | 5.01 nM | – |
| Nc1ccc(NC(=O)/C=C/c2c(C(=O)O)[nH]c3cc(Cl)cc(Cl)c23)cc1 | 1.26 nM | – |
| O=C(/C=C/c1c(C(=O)O)[nH]c2cc(Cl)cc(Cl)c12)Nc1ccc(F)cc1 | 6.31 nM | – |
| O=C(/C=C/c1c(C(=O)O)[nH]c2cc(Cl)cc(Cl)c12)Nc1ccc(Nc2ccccc2)cc1 | 200 nM | – |
| O=c1[nH]c2cc(Cl)ccc2c(O)c1-c1cccc(Oc2ccccc2)c1 | 1 nM | ED50 [2]: 0.78 mg/kg |
| CC(C)c1ccccc1NC(=O)/C=C/c1c(C(=O)O)[nH]c2cc(Cl)cc(Cl)c12 | 50.1 nM | – |
| COc1ccc(NC(=O)/C=C/c2c(C(=O)O)[nH]c3cc(Cl)cc(Cl)c23)c(C)c1 | 20 nM | – |
| NC(=O)Nc1ccc(NC(=O)/C=C/c2c(C(=O)O)[nH]c3cc(Cl)cc(Cl)c23)cc1 | 1.58 nM | – |
| Nc1cccc(NC(=O)/C=C/c2c(C(=O)O)[nH]c3cc(Cl)cc(Cl)c23)c1 | 5.01 nM | – |
| O=C(/C=C/c1c(C(=O)O)[nH]c2cc(Cl)cc(Cl)c12)Nc1cccc(O)c1 | 3.98 nM | – |
| O=C(/C=C/c1c(C(=O)O)[nH]c2cc(Cl)cc(Cl)c12)Nc1ccc([N+](=O)[O-])cc1 | 100 nM | – |
| O=C(/C=C/c1c(C(=O)O)[nH]c2cc(Cl)cc(Cl)c12)Nc1ccc(C(F)(F)F)cc1 | 158 nM | – |
| O=C(/C=C/c1c(C(=O)O)[nH]c2cc(Cl)cc(Cl)c12)Nc1ccc(O)cc1 | 2 nM | – |
| O=C(/C=C/c1c(C(=O)[O-])[nH]c2cc(Cl)cc(Cl)c12)NCc1ccccc1.[Na+] | 126 nM | ED50 [2]: > 30 mg/kg; ED50 [3]: > 200 mg/kg |
| O=C(/C=C/c1c(C(=O)O)[nH]c2cc(Cl)cc(Cl)c12)Nc1cccc([N+](=O)[O-])c1O | 10 nM | – |

Further compounds by falling Ki [1], results first:

| Ki [1] | SMILES | other results |
| --- | --- | --- |
| 2000 nM | O=C(O)c1cc2c(Cl)cc(Cl)cc2[nH]1 | – |
| 794 nM | O=C(O)c1[nH]c2cc(Cl)cc(Cl)c2c1/C=C/S(=O)(=O)Nc1ccccc1 | – |
| 501 nM | CC(C)(C)OC(=O)/C=C/c1c(C(=O)O)[nH]c2cc(Cl)cc(Cl)c12 | – |
| 100 nM | CCN(CC)c1ccc(NC(=O)/C=C/c2c(C(=O)O)[nH]c3cc(Cl)cc(Cl)c23)cc1 | – |
| 63.1 nM | O=C(/C=C/c1c(C(=O)O)[nH]c2cc(Cl)cc(Cl)c12)Nc1ccc(C(=O)O)cc1 | – |
| 25.1 nM | O=C(/C=C/c1c(C(=O)O)[nH]c2cc(Cl)cc(Cl)c12)Nc1ccccc1[N+](=O)[O-] | – |
| 20 nM | O=C(O)/C=C/c1c(C(=O)[O-])[nH]c2cc(Cl)cc(Cl)c12.[Na+] | ED50 [2]: 17.2 mg/kg; ED50 [3]: > 200 mg/kg |
| 12.6 nM | CN(C)c1ccc(NC(=O)/C=C/c2c(C(=O)O)[nH]c3cc(Cl)cc(Cl)c23)cc1 | – |
| 7.94 nM | O=c1[nH]c2cc(Cl)c(Cl)c([N+](=O)[O-])c2[nH]c1=O [LICOSTINEL] | ED50 [2]: 0.21 mg/kg |
| 6.31 nM | O=C(Nc1ccccc1)N[C@H]1C[C@H](C(=O)O)Nc2cc(Cl)cc(Cl)c21 | ED50 [2]: 0.21 mg/kg |
| 3.16 nM | O=C(/C=C/c1c(C(=O)[O-])[nH]c2cc(Cl)cc(Cl)c12)Nc1ccccc1.[Na+] [GAVESTINEL SODIUM] | ED50 [2]: 0.06 mg/kg; ED50 [3]: 6 mg/kg; pA2 [4]: 8.1 |

Source: ChEMBL document CHEMBL1129966, “Substituted indole-2-carboxylates as in vivo potent antagonists acting as the strychnine-insensitive glycine binding site” (J Med Chem, 1997)
